Target: H1047R PIK3CA enzyme (Homo sapiens, UniProt P42336, H1047R)
Assay: ADP-Glo Biochemical PIK3CA Kinase Assay

Sequence of H1047R PIK3CA enzyme (P42336 whole entry H1047R): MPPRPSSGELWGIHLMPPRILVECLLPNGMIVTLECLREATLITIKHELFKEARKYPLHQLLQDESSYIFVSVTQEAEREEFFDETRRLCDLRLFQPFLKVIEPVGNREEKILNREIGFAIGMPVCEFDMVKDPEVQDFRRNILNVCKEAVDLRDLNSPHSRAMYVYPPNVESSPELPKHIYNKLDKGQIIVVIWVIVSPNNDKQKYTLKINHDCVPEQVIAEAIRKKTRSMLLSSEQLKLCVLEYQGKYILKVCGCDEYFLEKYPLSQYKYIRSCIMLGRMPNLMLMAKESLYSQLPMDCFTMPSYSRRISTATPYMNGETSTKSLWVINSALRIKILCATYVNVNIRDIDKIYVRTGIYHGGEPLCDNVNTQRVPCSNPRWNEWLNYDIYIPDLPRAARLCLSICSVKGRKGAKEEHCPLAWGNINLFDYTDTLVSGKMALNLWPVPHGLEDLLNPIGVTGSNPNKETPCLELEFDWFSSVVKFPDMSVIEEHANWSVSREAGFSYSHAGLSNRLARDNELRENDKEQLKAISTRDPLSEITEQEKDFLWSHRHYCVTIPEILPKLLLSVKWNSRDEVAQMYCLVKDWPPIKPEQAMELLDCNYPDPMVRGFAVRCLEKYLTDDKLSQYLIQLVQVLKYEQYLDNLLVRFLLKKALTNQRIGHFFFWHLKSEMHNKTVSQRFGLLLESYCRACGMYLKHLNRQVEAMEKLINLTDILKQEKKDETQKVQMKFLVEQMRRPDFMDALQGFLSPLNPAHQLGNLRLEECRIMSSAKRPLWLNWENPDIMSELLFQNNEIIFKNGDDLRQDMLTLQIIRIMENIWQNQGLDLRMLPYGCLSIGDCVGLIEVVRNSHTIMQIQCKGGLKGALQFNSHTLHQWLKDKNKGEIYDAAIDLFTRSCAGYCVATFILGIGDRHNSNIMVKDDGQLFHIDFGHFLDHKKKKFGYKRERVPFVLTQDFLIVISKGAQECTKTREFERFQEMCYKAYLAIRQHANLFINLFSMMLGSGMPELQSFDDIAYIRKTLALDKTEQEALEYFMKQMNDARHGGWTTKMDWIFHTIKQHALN
Sequence of H1047R PIK3CA enzyme (P27986 whole entry partner): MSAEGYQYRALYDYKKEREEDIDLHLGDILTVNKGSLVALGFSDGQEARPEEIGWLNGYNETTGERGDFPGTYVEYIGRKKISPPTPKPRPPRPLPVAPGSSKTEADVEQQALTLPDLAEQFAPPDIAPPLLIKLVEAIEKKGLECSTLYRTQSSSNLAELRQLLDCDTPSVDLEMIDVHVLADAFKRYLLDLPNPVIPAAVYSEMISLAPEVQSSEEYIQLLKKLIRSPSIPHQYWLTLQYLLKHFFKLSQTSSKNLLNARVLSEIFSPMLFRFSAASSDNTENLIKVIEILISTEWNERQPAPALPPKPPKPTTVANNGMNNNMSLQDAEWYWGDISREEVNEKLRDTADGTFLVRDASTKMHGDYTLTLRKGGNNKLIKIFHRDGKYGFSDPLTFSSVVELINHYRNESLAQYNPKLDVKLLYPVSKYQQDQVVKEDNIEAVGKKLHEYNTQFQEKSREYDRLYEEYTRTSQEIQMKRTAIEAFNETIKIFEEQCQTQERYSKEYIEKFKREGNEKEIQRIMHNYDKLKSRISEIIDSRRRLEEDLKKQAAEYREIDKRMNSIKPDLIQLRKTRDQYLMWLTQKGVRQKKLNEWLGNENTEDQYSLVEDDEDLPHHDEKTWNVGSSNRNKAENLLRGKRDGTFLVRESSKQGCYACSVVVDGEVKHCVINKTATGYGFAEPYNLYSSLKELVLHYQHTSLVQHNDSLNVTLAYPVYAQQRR

With O=C(Nc1cc(OCC(F)F)cc2c1[C@@H](c1cc(F)ccc1Cl)NC2=O)c1cc(F)cc(C(F)(F)F)c1 [Compound I-2061] the IC50 was 1 to 10 µM.

O=C(Nc1cc(OCC(F)F)cc2c1[C@H](c1cc(F)ccc1Cl)NC2=O)c1cc(F)cc(C(F)(F)F)c1 [Compound I-2062] was tested, and the IC50 was at most 0.1 µM.

N#Cc1c(-c2cc(NC(=O)c3cc(F)cc(Cl)c3)c3c(c2)C(=O)N[C@H]3c2cc(F)ccc2Cl)ccc2ncnn12 [Compound I-2063] was tested, and the IC50 was 0.5 to 1 µM.

For N#Cc1c(-c2cc(NC(=O)c3cc(F)cc(Cl)c3)c3c(c2)C(=O)N[C@@H]3c2cc(F)ccc2Cl)ccc2ncnn12 [Compound I-2064], the IC50 was at most 0.1 µM.

In the case of O=C(Nc1cc(-c2cn3cc(C(F)F)nc3cn2)cc2c1C(c1cc(F)ccc1Cl)NC2=O)c1cc(F)cc(C(F)(F)F)c1 (centres unmarked) [Compound I-2065], the IC50 is reported as at most 0.1 µM.

[2H]c1nc2cnc(-c3cc(NC(=O)c4cc(F)cc(C(F)(F)F)c4)c4c(c3)C(=O)N[C@@H]4c3cc(F)ccc3Cl)cn2n1 [Compound I-2068] showed an IC50 of 1 to 10 µM.

With [2H]c1nc2cnc(-c3cc(NC(=O)c4cc(F)cc(C(F)(F)F)c4)c4c(c3)C(=O)N[C@H]4c3cc(F)ccc3Cl)cn2n1 [Compound I-2069] the IC50 was at most 0.1 µM.

With O=C1N[C@H](c2cc(F)ccc2Cl)c2c(NC(=O)C3(c4cc(F)cc(C(F)(F)F)c4)CCCC3)cc(Br)cc21 [Compound I-2070] the IC50 was 10 to 100 µM.

In the case of O=C1N[C@@H](c2cc(F)ccc2Cl)c2c(NC(=O)C3(c4cc(F)cc(C(F)(F)F)c4)CCCC3)cc(Br)cc21 [Compound I-2071], the IC50 is reported as 10 to 100 µM.

Molecule O=C(Nc1cccc2c1[C@@H](C1CCC(F)(F)CC1)NC2=O)c1cc(F)cc(C(F)(F)F)c1 [Compound I-2072] has an IC50 of 10 to 100 µM.

In the case of O=C(Nc1cccc2c1[C@H](C1CCC(F)(F)CC1)NC2=O)c1cc(F)cc(C(F)(F)F)c1 [Compound I-2073], the IC50 is reported as 10 to 100 µM.

O=C(Nc1cccc2c1C(C1NC3CCC1C3)NC2=O)c1cc(F)cc(C(F)(F)F)c1 (centres unmarked) [Compound I-2076] was tested, and the IC50 was 10 to 100 µM.

O=C(Nc1cccc2c1C(N1CCC(F)(F)CC1)NC2=O)c1cc(F)cc(C(F)(F)F)c1 (centres unmarked) [Compound I-2077] showed an IC50 of 1 to 10 µM.

In the case of O=C1NC(c2cc(F)ccc2Cl)c2c(NC3CCCS(=O)(=O)C3)cc(-c3ccc4ncnn4c3)cc21 (centres unmarked) [Compound I-2078], the IC50 is reported as 10 to 100 µM.

Work on O=C1NC(c2cc(F)ccc2Cl)c2c(NC(=O)[C@H]3CCC[C@@H](C(F)(F)F)C3)cccc21 (some centres unmarked) [Compound I-2079] yielded an IC50 of 0.5 to 1 µM.

Work on O=C1NC(c2cc(F)ccc2Cl)c2c(NC(=O)[C@H]3C[C@H](O)C[C@@H](C(F)(F)F)C3)cc(Br)cc21 (some centres unmarked) [Compound I-2080] yielded an IC50 of 1 to 10 µM.

In the case of O=C1N[C@@H](c2cc(F)ccc2Cl)c2c(N[C@@H]3CCOc4ccccc43)cc(-c3cnn(C(F)F)c3)nc21 [Compound I-2081], the IC50 is reported as 1 to 10 µM.

In the case of O=C1N[C@@H](c2cc(F)ccc2Cl)c2c(N[C@H]3CCOc4ccccc43)cc(-c3cnn(C(F)F)c3)nc21 [Compound I-2082], the IC50 is reported as 10 to 100 µM.

O=C1N[C@H](c2cc(F)ccc2Cl)c2c(NC(=O)[C@H]3CC[C@@H](C(F)(F)F)C3)cccc21 [Compound I-2083] gave an IC50 of 10 to 100 µM.

With O=C1N[C@H](c2cc(F)ccc2Cl)c2c(NC(=O)[C@@H]3CC[C@H](C(F)(F)F)C3)cccc21 [Compound I-2084] the IC50 was 10 to 100 µM.

With O=C1N[C@@H](c2cc(F)ccc2Cl)c2c(NC(=O)[C@H]3CC[C@@H](C(F)(F)F)C3)cccc21 [Compound I-2085] the IC50 was 1 to 10 µM.

For O=C1N[C@@H](c2cc(F)ccc2Cl)c2c(NC(=O)[C@@H]3CC[C@H](C(F)(F)F)C3)cccc21 [Compound I-2086], the IC50 was 1 to 10 µM.

O=C(Nc1cccc2c1C(c1cc(F)ccc1Cl)NC2=O)c1cc(F)cc(B(O)O)c1 (centres unmarked) [Compound I-2087] showed an IC50 of 10 to 100 µM.

With N#Cc1cc(-c2ccc(=O)[nH]c2)cc2c1C(c1cc(F)ccc1Cl)NC2=O (centres unmarked) [Compound I-2089] the IC50 was 10 to 100 µM.

In the case of O=C(Nc1cc(C2=CN3CCN=C3C=C2)cc2c1[C@H](c1cc(F)ccc1Cl)NC2=O)c1cc(F)cc(C(F)(F)F)c1 [Compound I-2090], the IC50 is reported as at most 0.1 µM.

O=C(Nc1cc(C2=CN3CCN=C3C=C2)cc2c1[C@@H](c1cc(F)ccc1Cl)NC2=O)c1cc(F)cc(C(F)(F)F)c1 [Compound I-2091] showed an IC50 of 0.5 to 1 µM.
